Test results from article PMC6960228, “Ethoxysanguinarine, a Novel Direct Activator of AMP-Activated Protein Kinase, Induces Autophagy and Exhibits Therapeutic Potential in Breast Cancer Cells” (Frontiers in Pharmacology, 2020).

How the values were obtained:
[1] = system: LC3-II and Beclin-1 in MCF-7, MDA-MB-231, and MDA-MB-436 cells; assay: Western blot of autophagy markers; format: cell-based, human; conditions: dose- and time-dependent
Experimental: Cells were lysed in radioimmunoprecipitation assay buffer containing 50 mM Tris, pH 8.0, 150 mM NaCl, 0.1% SDS, 0.5% sodium deoxycholate, 1% NP-40, 1 mM DTT, 1 mM NaF, 1 mM sodium orthovanadate, 1 mM phenylmethylsulfonyl fluoride (PMSF; Sigma-Aldrich; Merck KGaA), and 1% protease inhibitors cocktail (EMD Millipore, Billerica, MA, USA). Protein concentration was determined using the Bradford method. Equal amounts of sample (25 µg) were separated by SDS-PAGE (8–12% gels). Electrophoresed proteins were then transferred onto polyvinylidene fluoride membranes (EMD Millipore, Billerica, MA, USA). The membranes were blocked with 5% skimmed milk in Tris-buffered saline at room temperature for 1 h. Following blocking, membranes were incubated overnight at 4°C with primary antibodies and then rinsed with Tris-buffered saline with Tween 20. […]
Figure 2 Eth induces autophagy in BC cells. […] (C): MCF-7, MDA-MB-231, or MDA-MB-436 cells transfected with pQCXIP-GFP-LC3 plasmid were treated with increasing concentrations of Eth for 24 h, and assessed by immunoﬂuorescence analyses. […] (D): MDA-MB-231 or MDA-MB-436 cells transfected with pQCXIP-GFP-LC3 plasmid were treated with Eth (2.0 µM) and/or 3-MA (1 mM) for 24 h, and assessed by immunoﬂuorescence analyses. […] (F): MCF-7, MDA-MB-231, or MDA-MB-436 cells were treated with Eth (3.5 µM, 3.0 µM, or 3.0 µM) and/or 3-MA (1 mM) for 24 h and analyzed by MTT assay. […]

[2] = system: AMPK/mTORC1 signaling in MCF-7, MDA-MB-231, and MDA-MB-436 cells; assay: Western blot of AMPK/mTORC1 signaling; format: cell-based, human; conditions: western blot
Experimental: Cells were lysed in radioimmunoprecipitation assay buffer containing 50 mM Tris, pH 8.0, 150 mM NaCl, 0.1% SDS, 0.5% sodium deoxycholate, 1% NP-40, 1 mM DTT, 1 mM NaF, 1 mM sodium orthovanadate, 1 mM phenylmethylsulfonyl fluoride (PMSF; Sigma-Aldrich; Merck KGaA), and 1% protease inhibitors cocktail (EMD Millipore, Billerica, MA, USA). Protein concentration was determined using the Bradford method. Equal amounts of sample (25 µg) were separated by SDS-PAGE (8–12% gels). Electrophoresed proteins were then transferred onto polyvinylidene fluoride membranes (EMD Millipore, Billerica, MA, USA). The membranes were blocked with 5% skimmed milk in Tris-buffered saline at room temperature for 1 h. Following blocking, membranes were incubated overnight at 4°C with primary antibodies and then rinsed with Tris-buffered saline with Tween 20. The following primary antibodies were used: anti-Glut3 (1:500; catalog no. sc-74399) (Santa Cruz Biotechnology, Inc., Dallas, TX, USA); anti-LC3 (1:1000; catalog no. 12741), anti-AMPKα (1:1000; catalog no. 2532), anti-phospho-AMPKα (Thr172) (1:1000; catalog no. 2535), anti-phospho-AMPKβ1 (Ser108) (1:1000; catalog no. 4181), anti-AMPKγ1 (1:1000; catalog no. 4187), anti-mTOR (1:1000; catalog no. 2983), anti-phospho-mTOR (Ser2448) (1:1000; catalog no. 5536), anti-P70S6K (1:1000; catalog no. 9202), anti-phospho-P70S6K (Thr389) (1:1000; catalog no. 92775), anti-4E-BP1 (1:1000; catalog no. 9234), anti-phospho-4E-BP1 (Thr37/46) (1:1000; catalog no. 2855), anti-ACC (1:1000; catalog no. 3676), anti-phospho-ACC ([…]) (1:1000; catalog no. 11818), anti-Glut1 (1:1000; catalog no. 12939), anti-Glut4 (1:1000; catalog no. 2213) (All Cell Signaling Technology, Inc., Danvers, MA, USA), and anti-GAPDH (1:5000; catalog no. M20006; Abmart, Shanghai, China). Membranes were then washed, and incubated with horseradish peroxidase-conjugated secondary antibody (1:10000; E030120-01 and E030110-01; EarthOx, LLC, San Francisco, CA, USA) for 1.5 h at room temperature. The protein bands were visualized using SuperSignal® West Pico PLUS Chemiluminescent substrate (catalog no. 34579; Pierce; Thermo Fisher Scientific, Inc., Rockford, IL, USA) ([Zhang et al., 2018]).
Figure 3 Eth induces autophagy through the AMPK/mTORC1 signaling. (A): MCF-7, MDA-MB-231, or MDA-MB-436 cells were treated with increasing concentrations of Eth for 24 h. Western blot was performed using antibodies indicated. […] (D): MDA-MB-231 or MDA-MB-436 cells transfected with pQCXIP-GFP-LC3 plasmid were treated with Eth (2.0 µM) and/or CC (25 µM) for 24 h, and assessed by immunoﬂuorescence analyses. […] (G): MDA-MB-231 or MDA-MB-436 cells transfected with pQCXIP-GFP-LC3 plasmid were treated with Eth (1.0 µM or 1.6 µM) and/or Met (10 mM) for 24 h, and assessed by immunoﬂuorescence analyses. […]

SMILES: CCOC1c2c(ccc3c2OCO3)-c2ccc3cc4c(cc3c2N1C)OCO4 (stereo not drawn) [Eth, Ethoxysanguinarine]
- accumulation of LC3-II and Beclin-1 [1]: induced the accumulation of LC3-II and Beclin-1
- phosphorylation of mTORC1 effectors (mTOR, p70S6K, and 4EBP1) [2]: decreased the phosphorylation of mTORC1 effectors
- phosphorylation of AMPKα at Thr172 ([2]; dose- and time-dependent): increased
